Test results published in ChEMBL document CHEMBL5131389, “PSMA-targeted small-molecule docetaxel conjugate: Synthesis and preclinical evaluation” (Eur J Med Chem, 2022).

Experiments:
CWR22R [1] = test: Antitumor activity against human 22Rv1 cells xenografted in Balb/c nude mouse assessed as tumor growth inhibition at 10 mg/kg, ip administered once in two days for three times and measured 1 day after the end of treatment relative to control; assay type: functional; details: 22Rv1, 168 h, time 7 day, read-out: TGI
[2] = Chronic toxicity in rat assessed as reduction in standing up at 22.5 mg/kg, iv administered as pluronic F127 formulation at 4 intervals for 21 days and observed 3 weeks post last injection; assay type: organism-based; details: in vivo, 2544 h, time 106 day
[3] = Volume of distribution in Soviet Chinchilla rabbit at 8.1 mg/kg, iv administered as pluronic F127 formulation measured upto 72 hrs by high-performance liquid chromatography tandem mass spectrometric analysis; assay type: ADME, organism-based, Oryctolagus cuniculus; details: in vivo
[4] = Subchronic toxicity in Wistar rat assessed as diarrhoea at 58 mg/kg, iv administered as pluronic F127 formulation daily for 28 days and observed on days 4 to 5; assay type: organism-based; details: in vivo, 672 h, time 28 day
[5] = Toxicity in Balb/c nude mouse xenografted with human 22Rv1 cells assessed as animal death at 30 mg/kg, ip measured upto 30 days; assay type: organism-based, CWR22R; details: in vivo, 720 h, time < 30 day
[6] = C0 in Albino Wistar rat at 15 mg/kg, iv administered as pluronic F127 formulation measured upto 72 hrs by high-performance liquid chromatography tandem mass spectrometric analysis; assay type: ADME, organism-based; details: in vivo
[7] = MRT (0 to t) in Albino Wistar rat at 15 mg/kg, iv administered as pluronic F127 formulation measured upto 72 hrs by high-performance liquid chromatography tandem mass spectrometric analysis; assay type: ADME, organism-based; details: in vivo
[8] = Chronic toxicity in rat assessed as increase in creatinine concentration at 18.75 to 22.5 mg/kg, iv administered as pluronic F127 formulation at 4 intervals for 21 days and observed 3 weeks post last injection relative to control; assay type: organism-based; details: in vivo, 2544 h, dose 18.75-22.5 mg/kg, time 106 day
[9] = Chronic toxicity in Soviet Chinchilla rabbit assessed as external signs of intoxication administered intravenously as pluronic F127 formulation at 4 intervals for 21 days and observed 3 weeks post last injection; parameters: species or system Oryctolagus cuniculus; details: in vivo, iv, 2544 h, time 106 day
CWR22R [10] = test: Cytotoxicity against human 22Rv1 cells assessed as reduction in cell viability measured after 72 hrs by MTT assay; assay type: functional
[11] = Chronic toxicity in rat assessed as increase in relative spleen mass at 18.75 mg/kg, iv administered as pluronic F127 formulation at 4 intervals for 21 days and observed 3 weeks post last injection relative to control; assay type: organism-based; details: in vivo, 2544 h, time 106 day
[12] = Acute toxicity in Wistar rat assessed as hypertrophied adrenal gland at 15 to 279 mg/kg, iv administered as pluronic F127 formulation and measured for 14 days; assay type: organism-based; details: in vivo, 336 h, dose 15-279 mg/kg, time 14 day
[13] = Acute toxicity in ICR mouse assessed as liver damage at 183 to 960 mg/kg, iv administered as pluronic F127 formulation and measured for 14 days; assay type: organism-based; details: in vivo, 336 h, dose 183-960 mg/kg, time 14 day
[14] = Chronic toxicity in rat assessed as increase in relative mass of adrenal gland administered intravenously as pluronic F127 formulation at 4 intervals for 21 days and observed 3 weeks post last injection relative to control; assay type: tissue-based; details: in vivo, iv, 2544 h, time 106 day
[15] = Chronic toxicity in rat assessed as increase in relative mass of liver at 15 to 22.5 mg/kg, iv administered as pluronic F127 formulation at 4 intervals for 21 days and observed 3 weeks post last injection relative to control; assay type: organism-based; details: in vivo, 2544 h, dose 15-22.5 mg/kg, time 106 day
[16] = Ratio of AUC (t to infinity) to AUC (0 to infinity) in Soviet Chinchilla rabbit at 8.1 mg/kg, iv administered as pluronic F127 formulation measured upto 72 hrs by high-performance liquid chromatography tandem mass spectrometric analysis; assay type: ADME, organism-based, Oryctolagus cuniculus; details: in vivo
[17] = Acute toxicity in ICR mouse assessed as decrease in body weight administered intravenously as pluronic F127 formulation and measured for 14 days; details: in vivo, iv, 336 h, dose 183-960 mg/kg, time 14 day
[18] = Toxicity in BALB/c nude mouse xenografted with human DU-145 cells assessed as animal death at 30 to 60 mg/kg, ip measured upto 30 days; assay type: organism-based; details: in vivo, 720 h, dose 30-60 mg/kg, time < 30 day
CWR22R [19] = test: Antitumor activity against human 22Rv1 cells xenografted in Balb/c nude mouse assessed as tumor growth inhibition at 20 mg/kg, ip administered once in two days for three times and measured 4 days after the end of treatment relative to control; assay type: functional; details: 22Rv1, 240 h, time 10 day, read-out: TGI
CWR22R [20] = test: Antitumor activity against human 22Rv1 cells xenografted in Balb/c nude mouse assessed as tumor growth inhibition at 10 mg/kg, ip administered once in two days for three times and measured 4 days after the end of treatment relative to control; assay type: functional; details: 22Rv1, 240 h, time 10 day, read-out: TGI
[21] = Volume of distribution in Albino Wistar rat at 15 mg/kg, iv administered as pluronic F127 formulation measured upto 72 hrs by high-performance liquid chromatography tandem mass spectrometric analysis; assay type: ADME, organism-based; details: in vivo
[22] = Chronic toxicity in Soviet Chinchilla rabbit assessed as increase in relative liver mass administered intravenously as pluronic F127 formulation at 4 intervals for 21 days and observed 3 weeks post last injection relative to control; assay type: tissue-based, Oryctolagus cuniculus; details: in vivo, iv, 2544 h, time 106 day
[23] = Ratio of AUC (t to infinity) to AUC (0 to infinity) in Albino Wistar rat at 15 mg/kg, iv administered as pluronic F127 formulation measured upto 72 hrs by high-performance liquid chromatography tandem mass spectrometric analysis; assay type: ADME, organism-based; details: in vivo
[24] = MRT (0 to t) in Soviet Chinchilla rabbit at 8.1 mg/kg, iv administered as pluronic F127 formulation measured upto 72 hrs by high-performance liquid chromatography tandem mass spectrometric analysis; assay type: ADME, organism-based, Oryctolagus cuniculus; details: in vivo
[25] = AUC (0 to t) in Soviet Chinchilla rabbit at 8.1 mg/kg, iv administered as pluronic F127 formulation measured upto 72 hrs by high-performance liquid chromatography tandem mass spectrometric analysis; assay type: ADME, organism-based, Oryctolagus cuniculus; parameters: dose 8.1 mg/kg, time < 72 hrs, route iv; details: in vivo
[26] = C0 in Soviet Chinchilla rabbit at 8.1 mg/kg, iv administered as pluronic F127 formulation measured upto 72 hrs by high-performance liquid chromatography tandem mass spectrometric analysis; assay type: ADME, organism-based, Oryctolagus cuniculus; details: in vivo
[27] = Chronic toxicity in rat assessed as decrease in relative mass of testes administered intravenously as pluronic F127 formulation at 4 intervals for 21 days and observed 3 weeks post last injection relative to control; details: in vivo, iv, 2544 h, time 106 day
[28] = AUC (0 to infinity) in Soviet Chinchilla rabbit at 8.1 mg/kg, iv administered as pluronic F127 formulation measured upto 72 hrs by high-performance liquid chromatography tandem mass spectrometric analysis; assay type: ADME, organism-based, Oryctolagus cuniculus; parameters: dose 8.1 mg/kg, time < 72 hrs, route iv; details: in vivo
[29] = Chronic toxicity in rat assessed as reduction in body weight at 15 to 18.75 mg/kg, iv administered as pluronic F127 formulation at 4 intervals for 21 days and observed on 77 th day; assay type: organism-based; details: in vivo, 1848 h, dose 15-18.75 mg/kg, time 77 day
[30] = Half-life in Albino Wistar rat at 15 mg/kg, iv administered as pluronic F127 formulation measured upto 72 hrs by high-performance liquid chromatography tandem mass spectrometric analysis; assay type: ADME, organism-based; details: in vivo

CC(=O)O[C@@]12CO[C@@H]1C[C@H](O)[C@@]1(C)C(=O)[C@H](O)C3=C(C)[C@@H](OC(=O)[C@H](OC(=O)CCCc4cn(CCCNC(=O)[C@H](Cc5ccc(O)cc5)NC(=O)[C@H](Cc5ccccc5)NC(=O)CCC(=O)NCCCCCC(=O)N(CCCC[C@H](NC(=O)N[C@@H](CCC(=O)O)C(=O)O)C(=O)O)Cc5cccc(Cl)c5)nn4)[C@@H](NC(=O)OC(C)(C)C)c4ccccc4)C[C@@](O)([C@@H](OC(=O)c4ccccc4)[C@H]21)C3(C)C
inhibition in vivo at 10 mg/kg (CWR22R [1]): 84%
Activity [2]: Toxic
Vd [3]: 0.332 L/kg
Activity [4]: Toxic
Activity [5]: Toxic
C0 at 72 h [6]: 153 µg/mL
MRT last at 72 h [7]: 24 min
Activity [8]: Toxic
Activity [9]: Non-Toxic
CC50 (CWR22R [10]): 2.7 nM
Activity [11]: Toxic
Activity [12]: Toxic
Activity [13]: Toxic
Activity [14]: Toxic
Activity [15]: Toxic
Ratio AUC [16]: 12%
Activity [17]: Toxic
Activity [18]: Non-Toxic
inhibition in vivo at 20 mg/kg (CWR22R [19]): 85%
inhibition in vivo at 10 mg/kg (CWR22R [20]): 88%
Vd [21]: 0.631 L/kg
Activity [22]: Toxic
Ratio AUC [23]: 11%
MRT last at 72 h [24]: 444 min
AUC(0-t) at 72 h [25]: 253 µg·h/mL
C0 at 72 h [26]: 79 µg/mL
Activity [27]: Toxic
AUC(0-inf) [28]: 289 µg·h/mL
Activity [29]: Toxic
half-life [30]: 59.8 min
